The text below walks through data of patent US20130267571A1, “TERPENOID ANALOGUES AND USES THEREOF FOR TREATING NEUROLOGICAL CONDITIONS” (NeuroQuest Inc., priority 2010, published 2013).

Where only a bound is given, the exact number is not on record here.

The subject of assay [1] is zebrafish embryos. In words: Zebrafish response (anaesthesia) assay, touch response/swim behaviour. In kind it is in vivo. The following applies: Danio rerio, 1.5 h; complete anaesthesia (scale 1) in 50% of AB wild type embryos (54 hpf), 90 min at 28° C. An excerpt: Briefly, the ZEA assay involves applying essential oils, fractions or individual compounds to developmentally staged zebrafish embryos followed by monitoring of embryonic touch response/swim behaviour and evaluation of the dose response relationship for each substance. Using a four point scale to describe the embryonic behaviours (Table 4), initial analysis focused on monitoring and recording these changes and evaluating the level of bioactivity. The effective concentration to generate complete anaesthesia in 50% of the embryos (EC50), were evaluated as follows:
Compounds are tested on developmentally staged AB “wild type” zebrafish embryos (54 hpf+/−2 hpf) at concentrations ranging between 10 and 400 μM.
Each compound is diluted in a 95% ethanol or DMSO carrier to create a working stock solution from which appropriate dilutions are made in standard embryo E3 media.
1000 μl of each concentration or appropriate carrier control are added to 10 wild type AB embryos in a single well of a 24 well plate, in duplicate.
The embryos are incubated for 90 min at 28° C. (optimal temperature for embryonic growth) in the diluted compound.
A four point scale (Table 4) is used to evaluate the touch response and swim behaviour for each embryo in all wells.
The effectiveness of the compound will be based on its ability to generate complete anaesthesia (scale: 1) in 50% of the embryos at a given concentration (EC50).
The EC50 values are calculated using GraphPad Prism® software to analyze the log (dose) response curves.

The test system of assay [2] is voltage-gated Na+ channels. In words: Sodium (Na+) channel analysis in rat DRG neurons using whole cell patch-clamp. In kind it is cell-based. The following applies: Na+ currents in isolated rat DRG neurons, 3 min in presence of drug, read-out: IC50 range. As to the method: Isolated DRG neurons were suspended in primary neuron basal media and placed on glass coverslips for incubation in humidified atmosphere of 5% CO2 at 37° C. Coverslips carrying cells was transferred to the bath of an inverted microscope (Zeiss), continuously perfused with oxygenated artificial cerebro-spinal fluid (ACSF) containing (in mM) 124 NaCl, 2.5 KCl, 2 CaCl2, 1 MgSO4, 25 NaHCO3, 1 NaH2PO4, and 10 glucose, at a rate of 2-3 ml/min. Recording of whole-cell membrane currents were made at room temperature. Recording pipette (4-6 MS2) was filled with internal solution containing (in mM) 145 K-gluconate, 5 NaCl, 1 MgCl2, 0.2 EGTA, 10 HEPES, 2 Mg-ATP, 0.1 Na-GTP, and 10 phosphocreatine. To isolate Na^+ currents, DRG neurons were superfused with ACSF containing tetraethylammonium chloride (TEA) 5 mM, cesium chloride (CsCl) 100 μM and cadmium chloride (CdCl) 1 mM, to block potassium and calcium currents. NQ compounds were freshly dissolved in ASCF containing TEA, CsCl and CdCl, prior application via the bath.
For recording Na^+ currents, cells were held at −60 mV before applying a conditioning hyperpolarizing step (50 ms) to −90 mv to reactivate the voltage-gated Na^+ channels. The conditioning pulse was followed by depolarizing (150 ms) test pulses to 50 mV in 10 mV increments. Na^+ currents were recorded in absence, after 3 min in presence of the drugs and after a recovery time of 3 min.
(In patch-clamp work, channel activity is measured electrically.)

Assay [3] addresses TRPV1 (Homo sapiens, UniProt Q8NER1). In words: TRPV1 assay, calcium imaging. It counts as cell-based. As to the method: Briefly, cells are seeded into poly-L-lysine-coated, glass-bottom, 24-well plates (1×10^5 cells/well) and incubated overnight under standard culture conditions to achieve the desired confluency. Culture media is removed and cells washed twice with HBS prior to incubation for 15 to 60 min at 37° C. with a labelling mixture comprised of Fura-2-AM and pluronic acid in HBS. Data collection occurs over an eight minute period and follows the same general sequence. Following loading, cells are stimulated by addition of 1 μM of capsaicin agonist for 2 min, after which a concentration series of the test sample (e.g., (0.5, 5, 10, 50 μg/ml) is added and imaging continued for an additional 5 min. Capsazepine (20 μM) serves as a known reference antagonist, while cells that are mock-treated or receive vehicle (e.g., DMSO) alone serve as negative controls. For imaging, plates are placed on the stage of an inverted epifluorescence microscope (e.g. Axiovert 200, Zeiss) equipped with a CCD digital camera (e.g., Axiocam MRm, Zeiss). For each well of the plate, a sequence of image pairs (excitation at 340 nm and 380 nm) are collected to capture intracellular calcium flux. Image sequences are analyzed in Image) (NIH) and average pixel intensities calculated for six representative cells in each test condition to achieve mean fluorescence.

The mark [4] stands for this setting: Ca2+ imaging (Fura-2-AM) after stimulation with 1 μM capsaicin.

Sequence of TRPV1 (Q8NER1 whole entry, species assumed): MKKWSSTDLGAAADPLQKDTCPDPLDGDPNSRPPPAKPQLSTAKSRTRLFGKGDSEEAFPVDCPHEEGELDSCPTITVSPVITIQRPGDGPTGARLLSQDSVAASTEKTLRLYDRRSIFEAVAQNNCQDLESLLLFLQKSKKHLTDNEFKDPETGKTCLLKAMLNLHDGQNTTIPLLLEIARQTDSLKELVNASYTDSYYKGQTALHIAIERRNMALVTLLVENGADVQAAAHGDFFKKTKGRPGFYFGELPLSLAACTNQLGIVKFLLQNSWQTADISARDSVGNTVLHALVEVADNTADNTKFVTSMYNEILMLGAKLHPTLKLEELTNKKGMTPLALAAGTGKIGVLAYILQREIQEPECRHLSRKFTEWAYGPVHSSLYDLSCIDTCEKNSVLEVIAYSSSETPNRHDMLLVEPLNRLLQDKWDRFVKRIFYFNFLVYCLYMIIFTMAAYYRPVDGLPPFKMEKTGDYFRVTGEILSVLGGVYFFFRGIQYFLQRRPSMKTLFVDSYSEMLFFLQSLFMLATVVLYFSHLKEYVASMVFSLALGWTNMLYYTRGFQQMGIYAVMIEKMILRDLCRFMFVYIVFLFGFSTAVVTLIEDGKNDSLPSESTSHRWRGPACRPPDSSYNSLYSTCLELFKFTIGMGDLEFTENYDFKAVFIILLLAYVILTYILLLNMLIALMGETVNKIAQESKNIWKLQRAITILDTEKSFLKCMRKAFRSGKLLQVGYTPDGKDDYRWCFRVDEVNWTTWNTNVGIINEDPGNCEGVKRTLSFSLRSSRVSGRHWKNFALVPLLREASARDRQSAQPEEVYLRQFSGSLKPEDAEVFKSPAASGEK

As to `CC(C)=CCC/C(C)=C/C=O` [NQ 2983, (E)-3,7-dimethylocta-2,6-dienal], the EC50 – broadly, the concentration at which the effect is half-maximal – in assay [1] is 113 µM. In addition, the 50% inhibitory concentration (IC50) (usually the midpoint of a concentration-inhibition curve) in assay [2] was 1000 to 5000 µM; in assay [3] (setting [4]), 493 to 657 µM; in assay [3] (FIG. 2, Ca2+ imaging in HEK-TRPV cells), 493 µM.
The compound `CNC(=O)C=C(C)CCC=C(C)C` [NQ 2980, N,3,7-trimethylocta-2,6-dienamide] yielded an EC50 in assay [1] of 187 µM. The IC50 was 100 to 1000 µM in assay [2] and greater than 552 µM in assay [3] (setting [4]).
